According to ChEMBL document CHEMBL2029299, “Discovery of novel EGFR tyrosine kinase inhibitors by structure-based virtual screening” (Bioorg Med Chem Lett, 2012):

Key:
[1] = biological target: Epidermal growth factor receptor (Homo sapiens, UniProt P00533); assay: Inhibition of EGFR after 50 mins by HTRF assay
A-431 = assay: Antiproliferative activity against human A431 cells overexpressing EGFR after 72 hrs by MTT assay; settings: A-431, 72 h
NIH3T3 = assay: Antiproliferative activity against mouse NIH/3T3 cells after 72 hrs by MTT assay; settings: NIH3T3, 72 h

Epidermal growth factor receptor, sequence (P00533 whole entry): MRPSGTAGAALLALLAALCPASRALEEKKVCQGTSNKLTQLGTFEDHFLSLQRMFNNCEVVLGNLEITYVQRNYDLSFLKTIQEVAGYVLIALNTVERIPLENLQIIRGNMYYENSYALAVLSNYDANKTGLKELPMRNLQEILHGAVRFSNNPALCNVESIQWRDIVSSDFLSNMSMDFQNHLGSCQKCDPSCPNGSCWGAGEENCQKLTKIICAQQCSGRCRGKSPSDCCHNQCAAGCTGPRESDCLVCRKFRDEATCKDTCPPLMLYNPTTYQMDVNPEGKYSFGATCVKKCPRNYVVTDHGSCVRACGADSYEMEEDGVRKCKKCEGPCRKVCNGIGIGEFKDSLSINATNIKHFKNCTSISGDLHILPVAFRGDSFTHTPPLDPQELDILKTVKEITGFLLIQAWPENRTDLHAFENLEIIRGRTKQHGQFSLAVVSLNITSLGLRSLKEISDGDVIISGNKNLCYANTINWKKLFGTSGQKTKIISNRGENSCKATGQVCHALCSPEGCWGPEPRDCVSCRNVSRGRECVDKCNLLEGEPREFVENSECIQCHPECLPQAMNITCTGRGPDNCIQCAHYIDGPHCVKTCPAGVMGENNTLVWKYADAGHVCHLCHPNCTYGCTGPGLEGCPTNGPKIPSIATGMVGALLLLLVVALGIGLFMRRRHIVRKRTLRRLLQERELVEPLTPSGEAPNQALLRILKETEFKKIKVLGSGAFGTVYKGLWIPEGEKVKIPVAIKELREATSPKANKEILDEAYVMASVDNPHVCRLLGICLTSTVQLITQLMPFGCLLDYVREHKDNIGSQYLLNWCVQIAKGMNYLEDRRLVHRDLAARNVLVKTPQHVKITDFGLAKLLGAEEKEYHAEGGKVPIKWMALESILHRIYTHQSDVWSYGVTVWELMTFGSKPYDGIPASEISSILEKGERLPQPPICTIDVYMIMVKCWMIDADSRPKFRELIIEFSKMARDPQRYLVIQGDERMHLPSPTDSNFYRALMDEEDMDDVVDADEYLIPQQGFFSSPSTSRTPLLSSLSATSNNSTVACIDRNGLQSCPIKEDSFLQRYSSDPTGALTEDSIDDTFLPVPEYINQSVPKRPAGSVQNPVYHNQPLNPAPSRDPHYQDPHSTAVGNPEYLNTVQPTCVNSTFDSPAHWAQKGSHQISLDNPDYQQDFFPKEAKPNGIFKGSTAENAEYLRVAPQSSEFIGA

Row | SMILES | IC50 [1] [µM] | IC50 (A-431) [µM] | IC50 (NIH3T3) [µM]
1 | Cc1ccc(N2NC(=O)/C(=C\c3ccc(-c4cc([N+](=O)[O-])ccc4O)o3)C2=O)cc1C |  |  | 37.2
2 | CS(=O)(=O)CCNCc1ccc(-c2ccc3ncnc(Nc4ccc(OCc5cccc(F)c5)c(Cl)c4)c3c2)o1 [LAPATINIB] |  |  | 4.3
3 | C=C(N/N=C/c1cn[nH]c1-c1ccccc1)[C@H](C)Cc1ccccc1 |  |  | > 50
4 | Cc1nn(C)cc1C(=O)Nc1ccn(Cc2c(F)cccc2Cl)n1 |  |  | > 50
5 | O=C(Cc1ccc(F)cc1)Nc1cc(SC[C@@H](O)CO)cc([N+](=O)[O-])c1 | 48.6 | 26.8 | > 50
6 | Cn1c(NCc2cccc(C(F)(F)F)c2)cc(=O)n(C)c1=O | 83.9 | > 50 | > 50

Second part, led by results:

Row | IC50 [1] [µM] | IC50 (A-431) [µM] | SMILES | IC50 (NIH3T3) [µM]
7 | 5.3 | 16.7 | Nc1nn2c(=O)cc(-c3ccccc3)[nH]c2c1/N=N/c1ccc2c(c1)OCO2 | 46
8 | 8.6 | 14 | Cc1ccc(N2NC(=O)/C(=C/c3ccc(OCc4ccccc4)cc3)C2=O)cc1Cl | 41.3
9 | 8.4 | > 50 | CCOc1ccc(-c2cc(C(F)(F)F)c(C#N)c(SCC(=O)NCC(=O)O)n2)cc1 | > 50
10 | 9.7 | 39.6 | O=S(=O)(c1ccc(/N=C/c2cc(Br)ccc2O)cc1)N1CCCCC1 | > 50
11 | 6.8 | 19.4 | O=C(Cn1c(-c2ccccc2)cc(=O)n2ncnc12)NNC(=S)Nc1ccccc1 | 20
12 | 5.6 | 18.9 | O=C1NN(c2ccc(F)cc2)C(=O)/C1=C\c1cccc(OCc2ccccc2F)c1 | 23.1
13 | 3.5 | 23.2 | O=C1NN(c2ccc(F)c(Cl)c2)C(=O)/C1=C\c1cccc(OC(=O)c2cccs2)c1 | 28.2
14 | 23.1 | 30 | Cc1cccc(N2NC(=O)/C(=C/c3ccc(-c4ccccc4F)o3)C2=O)c1 | > 50
